Data published in EP1752193A1, “Use of one or more cyclic 1,2-alkylene carbonates as stabilizer and activity enhancer for preservatives, corresponding composition” (Dr. Straetmans Chemische Produkte GmbH, priority 2005, dated 2007).

Tests used:
Format in all cases: cell-based
Mikroorganismen = assay: synergistic enhancement of antimicrobial agents by cyclic 1,2-alkylene carbonates; conditions: combination of cyclic 1,2-alkylene carbonate with preservative or antimicrobial additive
Source text: Die Verwendung dieser zyklischen 1,2-Alkylencarbonate zur Herstellung von Mischungen mit herkömmlichen Konservierungsmitteln und der erfindungsgemäße Einsatz dieser Mischungen in kosmetischen oder dermatologischen Anwendungen zeigte überraschenderweise, dass die Effizienz der Konservierungsmittel in Konzentrationen, die für sich allein keine antimikrobielle Wirkung mehr zeigten, durch den Zusatz der zyklischen 1,2-Alkylencarbonate erheblich gesteigert werden kann und somit der Anteil der Konservierungsmittel in den entsprechenden Produkten signifikant gesenkt werden konnte.
Zyklische 1,2-Alkylencarbonate, für die dieser synergistische Effekt nachgewiesen werden konnten, finden sich bevorzugt in der Gruppe der linearen und verzweigten 1,2-Alkylencarboate mit einer Kettenlänge von n = 4 - 8, z.B. 1,2-Butylencarbonat, 1,2-Pentylencarbonat, 1,2-Hexylencarbonat und 1,2-Octylencarbonat.
Konservierungsmittel im Sinne der Erfindung, für die dieser synergistische Effekt nachgewiesen werden konnte, sind Methylparaben, Ethylparaben, Propylparaben, Isopropylparaben, Butylparaben und die Mischungen dieser Parabene, Phenoxyethanol, Benzoesäure und ihre Ester und Salze, Sorbinsäure und ihre Salze sowie Benzylalkohol. Die zu erwartenden synergistischen Effekte von 1,2-Alkylencarbonaten mit Iodopropinylbutylcarbamat, Formaldehyd and Formaldehyd-Abspalter (z.B. DMDM-Hydantoin, Imidazolinylharnstoff, Paraformaldehyd), Chlorphenesin, Bronopol, Methyldibromglutaronitril, Dehydracetsäure und ihre Salze, Polyaminopropylbiguanide, Chlorhexidin und seine Derivate (z.B. Chlorhexidinacetat, Chlorhexidingluconat, Chlorhexidinhydrochlorid), Methylisothiazolinon und Methylchloroisothiazolinone neben den in Anhang 6, Teil A und B der Kosmetikverordnung aufgeführten weiteren Stoffklassen oder Mischungen der genannten Konservierungsmittel werden ebenfalls in dieser Erfindung beansprucht.
Multifunktionellen Kosmetikadditive mit antimikrobiellen Eigenschaften im Sinne dieser Erfindung finden sich vor allem in der Gruppe der mittelkettigen polaren Substanzen. Diese Gruppe umfasst Polyole mit 5 - 12 Kohlenstoffatomen, wie z.B. Pentylenglycol, Hexylenglycol, 1,2-Hexandiol, Caprylyl Glycol oder 2-Methyl-1,3-propandiol, Monoester aus Glycerin und Fettsäuren der Kettenlänge n = 6 - 12, wie z.B. Glyceryl Caprylate, Glyceryl Caprate oder Glyceryl Laurate, Ether der Glycerins mit linearen oder verzweigten Alkanolen der Kettenlänge n = 6 - 12, wie z.B. das Ethylhexylglycerin sowie N-Acylderivate von Aminosäuren, z.B. N.Undecenylglycin.

Pseudomonas Aeruginosa = assay: microbiological challenge test (preservative efficacy, Ph. Eur. 1997 5.1.3); conditions: emulsion with 0,50 preservative, 2,00 carbonate where named
Source text: (§1) Ergebnisse des mikrobiologischen Belastungstests, durchgeführt nach europäischem Arzneibuch 1997: 5.1.3 Prüfung auf ausreichende Konservierung (entspricht Deutschem Arzneibuch: VIII.14) für die Beispielrezeptur nach 1.:
(§2) Ergebnisse des mikrobiologischen Belastungstests, durchgeführt nach europäischem Arzneibuch 1997: 5.1.3 Prüfung auf ausreichende Konservierung (entspricht Deutschem Arzneibuch: VIII.14) für die Beispielrezeptur nach 3.:
(§3) Ergebnisse des mikrobiologischen Belastungstests, durchgeführt nach europäischem Arzneibuch 1997: 5.1.3 Prüfung auf ausreichende Konservierung (entspricht Deutschem Arzneibuch: VIII.14) für die Beispielrezeptur nach 4.:
(§4) Ergebnisse des mikrobiologischen Belastungstests, durchgeführt nach europäischem Arzneibuch 1997: 5.1.3 Prüfung auf ausreichende Konservierung (entspricht Deutschem Arzneibuch: VIII.14) für die Beispielrezeptur nach 5.:
(§5) Ergebnisse des mikrobiologischen Belastungstests, durchgeführt nach europäischem Arzneibuch 1997: 5.1.3 Prüfung auf ausreichende Konservierung (entspricht Deutschem Arzneibuch: VIII.14) für die Beispielrezeptur nach 6.: […]

Escherichia Coli = assay: as above; conditions: emulsion with 0,50 preservative, 2,00 carbonate where named
Source text: as §1, §2, §3, §4, §5

Staphylococcus aureus = assay: as above; conditions: emulsion with 0,50 preservative, 2,00 carbonate where named
Source text: as §1, §2, §3, §4, §5

Aspergillus Niger = assay: as above; conditions: emulsion with 0,50 preservative, 2,00 carbonate where named
Source text: as §1, §2, §3, §4, §5

Candida Albicans = assay: as above; conditions: emulsion with 0,50 preservative, 2,00 carbonate where named
Source text: as §1, §2, §3, §4, §5

Row | Structure (SMILES) | synergistische Effekt (Mikroorganismen) | Koloniebildende Einheiten / g nach Beimpfung mit: Pseudomonas Aeruginosa (Pseudomonas Aeruginosa; 0 Tage (inoculum)) | Koloniebildende Einheiten / g nach Beimpfung mit: Pseudomonas Aeruginosa (Pseudomonas Aeruginosa; 2 Tage) | Koloniebildende Einheiten / g nach Beimpfung mit: Pseudomonas Aeruginosa (Pseudomonas Aeruginosa; 7 Tage) | Koloniebildende Einheiten / g nach Beimpfung mit: Pseudomonas Aeruginosa (Pseudomonas Aeruginosa; 14 Tage) | Koloniebildende Einheiten / g nach Beimpfung mit: Pseudomonas Aeruginosa (Pseudomonas Aeruginosa; 28 Tage) | Koloniebildende Einheiten / g nach Beimpfung mit: Escherichia Coli (Escherichia Coli; 0 Tage (inoculum)) | Koloniebildende Einheiten / g nach Beimpfung mit: Escherichia Coli (Escherichia Coli; 2 Tage) | Koloniebildende Einheiten / g nach Beimpfung mit: Escherichia Coli (Escherichia Coli; 7 Tage) | Koloniebildende Einheiten / g nach Beimpfung mit: Escherichia Coli (Escherichia Coli; 14 Tage) | Koloniebildende Einheiten / g nach Beimpfung mit: Escherichia Coli (Escherichia Coli; 28 Tage) | Koloniebildende Einheiten / g nach Beimpfung mit: Staphylococcus aureus (Staphylococcus aureus; 0 Tage (inoculum)) | Koloniebildende Einheiten / g nach Beimpfung mit: Staphylococcus aureus (Staphylococcus aureus; 2 Tage) | Koloniebildende Einheiten / g nach Beimpfung mit: Staphylococcus aureus (Staphylococcus aureus; 7 Tage) | Koloniebildende Einheiten / g nach Beimpfung mit: Staphylococcus aureus (Staphylococcus aureus; 14 Tage) | Koloniebildende Einheiten / g nach Beimpfung mit: Staphylococcus aureus (Staphylococcus aureus; 28 Tage) | Koloniebildende Einheiten / g nach Beimpfung mit: Aspergillus Niger (Aspergillus Niger; 0 Tage (inoculum)) | Koloniebildende Einheiten / g nach Beimpfung mit: Aspergillus Niger (Aspergillus Niger; 2 Tage) | Koloniebildende Einheiten / g nach Beimpfung mit: Aspergillus Niger (Aspergillus Niger; 7 Tage) | Koloniebildende Einheiten / g nach Beimpfung mit: Aspergillus Niger (Aspergillus Niger; 14 Tage) | also measured
1 | CCC1COC(=O)O1 (stereo not drawn) [BC, 1,2-Butylencarbonat] | Besonders ausgeprägt Effekte |  |  |  |  |  |  |  |  |  |  |  |  |  |  |  |  |  |  |  | 
2 | OCc1ccccc1 [Benzylalkohol] |  | 210000 Koloniebildende Einheiten / g | 40000 Koloniebildende Einheiten / g | 12000 Koloniebildende Einheiten / g | 1000 Koloniebildende Einheiten / g | <10 Koloniebildende Einheiten / g | 810000 Koloniebildende Einheiten / g | 100000 Koloniebildende Einheiten / g | 100000 Koloniebildende Einheiten / g | 52000 Koloniebildende Einheiten / g | 8000 Koloniebildende Einheiten / g | 250000 Koloniebildende Einheiten / g | 100000 Koloniebildende Einheiten / g | 4000 Koloniebildende Einheiten / g | <10 Koloniebildende Einheiten / g | <10 Koloniebildende Einheiten / g | 170000 Koloniebildende Einheiten / g | 64000 Koloniebildende Einheiten / g | 60000 Koloniebildende Einheiten / g | 59000 Koloniebildende Einheiten / g | Koloniebildende Einheiten / g nach Beimpfung mit: Aspergillus Niger (Aspergillus Niger; 28 Tage): 61000 Koloniebildende Einheiten / g; Koloniebildende Einheiten / g nach Beimpfung mit: Candida Albicans (Candida Albicans; 0 Tage (inoculum)): 410000 Koloniebildende Einheiten / g; Koloniebildende Einheiten / g nach Beimpfung mit: Candida Albicans (Candida Albicans; 2 Tage): 70000 Koloniebildende Einheiten / g; Koloniebildende Einheiten / g nach Beimpfung mit: Candida Albicans (Candida Albicans; 7 Tage): 50000 Koloniebildende Einheiten / g; Koloniebildende Einheiten / g nach Beimpfung mit: Candida Albicans (Candida Albicans; 14 Tage): 50000 Koloniebildende Einheiten / g; Koloniebildende Einheiten / g nach Beimpfung mit: Candida Albicans (Candida Albicans; 28 Tage): 45000 Koloniebildende Einheiten / g
3 | CCCCCCC(O)CO (stereo not drawn) [Caprylyl Glycol] | Besonders ausgeprägte Effekte |  |  |  |  |  |  |  |  |  |  |  |  |  |  |  |  |  |  |  | 
4 | CCCCCCCC(=O)OCC(O)CO (stereo not drawn) [Glyceryl Caprylate] | Besonders ausgeprägte Effekte |  |  |  |  |  |  |  |  |  |  |  |  |  |  |  |  |  |  |  | 
5 | CCCC1COC(=O)O1 (stereo not drawn) [PC, 1,2-Pentylencarbonat] | Besonders ausgeprägt Effekte |  |  |  |  |  |  |  |  |  |  |  |  |  |  |  |  |  |  |  | 
6 | OCCOc1ccccc1 [Phenoxyethanol] |  | 600000 Koloniebildende Einheiten / g | 8000 Koloniebildende Einheiten / g | 10000 Koloniebildende Einheiten / g | 10000 Koloniebildende Einheiten / g | 10000 Koloniebildende Einheiten / g | 3000000 Koloniebildende Einheiten / g | 100000 Koloniebildende Einheiten / g | 100000 Koloniebildende Einheiten / g | 100000 Koloniebildende Einheiten / g | 70000 Koloniebildende Einheiten / g | 380000 Koloniebildende Einheiten / g | 100000 Koloniebildende Einheiten / g | 100000 Koloniebildende Einheiten / g | 84000 Koloniebildende Einheiten / g | 80000 Koloniebildende Einheiten / g | 320000 Koloniebildende Einheiten / g | 60000 Koloniebildende Einheiten / g | 60000 Koloniebildende Einheiten / g | 60000 Koloniebildende Einheiten / g | Koloniebildende Einheiten / g nach Beimpfung mit: Aspergillus Niger (Aspergillus Niger; 28 Tage): 50000 Koloniebildende Einheiten / g; Koloniebildende Einheiten / g nach Beimpfung mit: Candida Albicans (Candida Albicans; 0 Tage (inoculum)): 310000 Koloniebildende Einheiten / g; Koloniebildende Einheiten / g nach Beimpfung mit: Candida Albicans (Candida Albicans; 2 Tage): 100000 Koloniebildende Einheiten / g; Koloniebildende Einheiten / g nach Beimpfung mit: Candida Albicans (Candida Albicans; 7 Tage): 100000 Koloniebildende Einheiten / g; Koloniebildende Einheiten / g nach Beimpfung mit: Candida Albicans (Candida Albicans; 14 Tage): 100000 Koloniebildende Einheiten / g; Koloniebildende Einheiten / g nach Beimpfung mit: Candida Albicans (Candida Albicans; 28 Tage): 80000 Koloniebildende Einheiten / g
